Among the data in US20240246942A1, “KINASE INHIBITORS FOR THE TREATMENT OF NEURODEGENERATIVE DISEASES” (priority 2020, published 2024) are remaining activity values, retold here.

Test in all cases: biochemical
The target of experiment [1] is T1, panel of 374 wild-type kinases (Homo sapiens, UniProt Q07002).
T1 construct: purchased Reaction Biology Corporation
To be noted: read-out: % Enzyme Activity (relative to DMSO controls), CDK18/cyclin Y (PCTK3).

In experiment [2] the target is T2, panel of 374 wild-type kinases (Homo sapiens, UniProt P78368).
T2 construct: purchased Reaction Biology Corporation
To be noted: read-out: % Enzyme Activity (relative to DMSO controls), CK1g2.

Experiment [3] deals with T3, panel of 374 wild-type kinases (Homo sapiens, UniProt Q96RG2).
T3 construct: purchased Reaction Biology Corporation
Particulars: read-out: % Enzyme Activity (relative to DMSO controls), kinase PASK.

Experiment [4] addresses T4, panel of 374 wild-type kinases (Homo sapiens, UniProt P51955).
T4 construct: purchased Reaction Biology Corporation
T4 sequence (P51955 1-445): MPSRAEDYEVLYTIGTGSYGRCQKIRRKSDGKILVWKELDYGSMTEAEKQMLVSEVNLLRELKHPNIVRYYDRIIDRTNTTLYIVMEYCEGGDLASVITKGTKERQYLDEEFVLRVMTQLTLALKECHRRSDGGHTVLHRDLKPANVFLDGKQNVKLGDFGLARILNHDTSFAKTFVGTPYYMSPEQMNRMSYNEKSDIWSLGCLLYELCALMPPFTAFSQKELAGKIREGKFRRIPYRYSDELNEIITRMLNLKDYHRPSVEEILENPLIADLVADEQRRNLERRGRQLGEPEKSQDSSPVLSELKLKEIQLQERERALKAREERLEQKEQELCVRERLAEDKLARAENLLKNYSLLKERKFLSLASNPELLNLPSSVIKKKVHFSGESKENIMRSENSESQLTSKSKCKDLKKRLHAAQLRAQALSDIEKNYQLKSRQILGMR
To be noted: read-out: % Enzyme Activity (relative to DMSO controls), NEK2.

The target in experiment [5] is T5, panel of 374 wild-type kinases (Homo sapiens, UniProt O75116).
T5 construct: purchased Reaction Biology Corporation
Particulars: read-out: % Enzyme Activity (relative to DMSO controls), kinase ROCK2.

Experiment [6] has as its target T6, panel of 374 wild-type kinases (Homo sapiens, UniProt Q9Y463).
T6 construct: purchased Reaction Biology Corporation
Particulars: DYRK1B, read-out: % Enzyme Activity (relative to DMSO controls).

The target in experiment [7] is T7, panel of 374 wild-type kinases (Homo sapiens, UniProt Q9BZL6).
T7 construct: purchased Reaction Biology Corporation
T7 sequence (Q9BZL6 1-878): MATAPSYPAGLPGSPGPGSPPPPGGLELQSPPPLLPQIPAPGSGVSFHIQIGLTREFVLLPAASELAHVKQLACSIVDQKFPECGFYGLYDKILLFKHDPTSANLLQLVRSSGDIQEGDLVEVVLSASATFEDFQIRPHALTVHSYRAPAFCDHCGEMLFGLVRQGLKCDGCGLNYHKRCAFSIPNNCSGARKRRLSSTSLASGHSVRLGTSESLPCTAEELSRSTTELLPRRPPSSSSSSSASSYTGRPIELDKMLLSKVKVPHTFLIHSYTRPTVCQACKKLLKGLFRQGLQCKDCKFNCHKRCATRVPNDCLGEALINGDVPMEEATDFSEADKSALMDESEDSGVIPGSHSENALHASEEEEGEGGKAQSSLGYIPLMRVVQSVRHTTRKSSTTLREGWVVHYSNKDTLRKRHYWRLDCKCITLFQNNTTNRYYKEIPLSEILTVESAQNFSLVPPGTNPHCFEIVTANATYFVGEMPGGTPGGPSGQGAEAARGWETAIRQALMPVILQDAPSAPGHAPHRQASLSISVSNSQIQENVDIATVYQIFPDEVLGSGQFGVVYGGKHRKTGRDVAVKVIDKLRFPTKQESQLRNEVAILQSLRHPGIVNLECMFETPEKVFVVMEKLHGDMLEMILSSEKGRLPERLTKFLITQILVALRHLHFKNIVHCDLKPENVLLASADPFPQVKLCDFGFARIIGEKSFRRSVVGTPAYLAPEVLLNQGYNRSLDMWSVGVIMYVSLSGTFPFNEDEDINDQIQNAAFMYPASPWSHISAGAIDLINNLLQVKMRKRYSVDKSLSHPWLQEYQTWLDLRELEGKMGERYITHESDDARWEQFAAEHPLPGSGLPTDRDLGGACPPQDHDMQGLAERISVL
To be noted: read-out: % Enzyme Activity (relative to DMSO controls), kinase PKD2/PRKD2.

For experiment [8], the target named is T8, panel of 374 wild-type kinases (Homo sapiens, UniProt Q8IU85).
T8 construct: purchased Reaction Biology Corporation
Particulars: read-out: % Enzyme Activity (relative to DMSO controls), CAMK1d.

Experiment [9] deals with T9, panel of 374 wild-type kinases (Homo sapiens, UniProt Q9HC98).
T9 construct: purchased Reaction Biology Corporation
To be noted: read-out: % Enzyme Activity (relative to DMSO controls), NEK6.

Experiment [10] concerns the target T10, panel of 374 wild-type kinases (Homo sapiens, UniProt P51813).
T10 construct: purchased Reaction Biology Corporation
T10 sequence (P51813 1-675): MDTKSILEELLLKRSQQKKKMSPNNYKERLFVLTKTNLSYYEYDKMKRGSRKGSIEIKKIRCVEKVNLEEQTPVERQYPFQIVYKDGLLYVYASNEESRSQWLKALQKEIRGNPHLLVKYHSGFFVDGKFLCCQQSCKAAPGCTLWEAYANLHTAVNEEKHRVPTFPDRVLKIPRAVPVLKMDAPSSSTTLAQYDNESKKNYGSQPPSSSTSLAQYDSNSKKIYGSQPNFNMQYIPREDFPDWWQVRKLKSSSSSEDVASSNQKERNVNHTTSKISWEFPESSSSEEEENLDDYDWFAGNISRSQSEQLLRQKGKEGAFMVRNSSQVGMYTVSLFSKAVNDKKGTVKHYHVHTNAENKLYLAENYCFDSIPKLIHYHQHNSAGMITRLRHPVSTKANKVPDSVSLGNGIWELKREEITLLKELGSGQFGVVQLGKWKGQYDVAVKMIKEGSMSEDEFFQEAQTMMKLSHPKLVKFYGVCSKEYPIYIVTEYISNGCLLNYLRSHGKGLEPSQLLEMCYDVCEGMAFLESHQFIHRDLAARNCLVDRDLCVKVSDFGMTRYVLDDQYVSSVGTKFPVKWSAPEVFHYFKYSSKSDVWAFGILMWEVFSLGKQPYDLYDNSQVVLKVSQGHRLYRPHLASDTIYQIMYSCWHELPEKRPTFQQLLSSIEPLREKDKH
Particulars: read-out: % Enzyme Activity (relative to DMSO controls), BMX/ETK.

T5 sequence (O75116 whole entry): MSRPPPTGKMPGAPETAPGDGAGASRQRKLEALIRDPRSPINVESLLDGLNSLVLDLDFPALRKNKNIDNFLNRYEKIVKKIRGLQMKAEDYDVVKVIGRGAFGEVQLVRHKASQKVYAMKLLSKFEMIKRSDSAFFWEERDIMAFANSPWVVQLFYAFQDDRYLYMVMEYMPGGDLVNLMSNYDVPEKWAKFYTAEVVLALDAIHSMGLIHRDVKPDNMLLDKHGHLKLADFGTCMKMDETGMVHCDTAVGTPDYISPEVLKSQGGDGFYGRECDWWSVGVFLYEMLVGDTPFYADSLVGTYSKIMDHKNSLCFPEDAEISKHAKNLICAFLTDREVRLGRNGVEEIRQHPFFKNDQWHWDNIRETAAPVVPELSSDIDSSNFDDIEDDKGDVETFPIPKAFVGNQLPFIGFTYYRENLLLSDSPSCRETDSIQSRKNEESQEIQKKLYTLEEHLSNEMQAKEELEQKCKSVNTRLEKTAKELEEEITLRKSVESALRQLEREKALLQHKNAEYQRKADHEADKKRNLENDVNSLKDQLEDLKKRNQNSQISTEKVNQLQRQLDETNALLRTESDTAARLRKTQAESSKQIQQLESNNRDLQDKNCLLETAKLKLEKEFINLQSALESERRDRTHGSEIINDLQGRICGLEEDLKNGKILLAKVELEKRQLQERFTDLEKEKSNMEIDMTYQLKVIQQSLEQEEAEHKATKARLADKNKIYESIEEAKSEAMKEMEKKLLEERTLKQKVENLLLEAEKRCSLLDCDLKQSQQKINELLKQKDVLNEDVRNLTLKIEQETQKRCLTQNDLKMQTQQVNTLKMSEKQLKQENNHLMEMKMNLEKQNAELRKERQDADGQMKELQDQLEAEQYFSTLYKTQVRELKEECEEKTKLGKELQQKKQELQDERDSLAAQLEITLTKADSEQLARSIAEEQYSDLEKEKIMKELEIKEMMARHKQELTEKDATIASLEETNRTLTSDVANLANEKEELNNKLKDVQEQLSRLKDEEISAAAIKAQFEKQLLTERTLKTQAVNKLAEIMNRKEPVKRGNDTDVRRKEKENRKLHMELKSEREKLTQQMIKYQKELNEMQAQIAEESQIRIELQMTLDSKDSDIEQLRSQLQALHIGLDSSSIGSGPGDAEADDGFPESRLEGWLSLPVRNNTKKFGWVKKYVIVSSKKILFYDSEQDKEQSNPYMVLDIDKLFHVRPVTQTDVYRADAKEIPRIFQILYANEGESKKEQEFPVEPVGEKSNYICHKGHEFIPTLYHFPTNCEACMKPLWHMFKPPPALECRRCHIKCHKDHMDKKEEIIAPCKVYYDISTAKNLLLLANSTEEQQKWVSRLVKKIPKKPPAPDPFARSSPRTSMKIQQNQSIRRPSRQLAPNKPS
T2 sequence (P78368 whole entry): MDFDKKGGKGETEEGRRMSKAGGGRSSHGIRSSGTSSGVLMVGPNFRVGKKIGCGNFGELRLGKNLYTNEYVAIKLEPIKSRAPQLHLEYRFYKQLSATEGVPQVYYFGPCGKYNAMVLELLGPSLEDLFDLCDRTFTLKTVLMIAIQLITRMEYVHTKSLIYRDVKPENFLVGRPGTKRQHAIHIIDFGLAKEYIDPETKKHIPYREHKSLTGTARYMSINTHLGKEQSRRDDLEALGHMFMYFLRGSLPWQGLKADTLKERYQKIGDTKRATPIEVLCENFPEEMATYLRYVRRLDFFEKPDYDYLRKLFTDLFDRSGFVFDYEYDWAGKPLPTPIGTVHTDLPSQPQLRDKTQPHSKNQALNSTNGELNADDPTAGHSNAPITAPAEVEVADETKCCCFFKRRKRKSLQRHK
T8 sequence (Q8IU85 whole entry): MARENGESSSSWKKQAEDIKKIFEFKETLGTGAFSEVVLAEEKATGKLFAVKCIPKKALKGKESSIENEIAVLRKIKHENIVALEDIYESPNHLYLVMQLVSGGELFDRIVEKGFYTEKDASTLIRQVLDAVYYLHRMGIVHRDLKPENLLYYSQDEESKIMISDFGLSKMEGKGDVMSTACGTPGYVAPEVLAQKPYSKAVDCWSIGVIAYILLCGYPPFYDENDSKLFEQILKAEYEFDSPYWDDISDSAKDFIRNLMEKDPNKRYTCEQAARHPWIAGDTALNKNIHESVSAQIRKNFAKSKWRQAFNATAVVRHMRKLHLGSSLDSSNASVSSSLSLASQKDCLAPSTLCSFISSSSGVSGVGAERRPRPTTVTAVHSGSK
T9 sequence (Q9HC98 whole entry): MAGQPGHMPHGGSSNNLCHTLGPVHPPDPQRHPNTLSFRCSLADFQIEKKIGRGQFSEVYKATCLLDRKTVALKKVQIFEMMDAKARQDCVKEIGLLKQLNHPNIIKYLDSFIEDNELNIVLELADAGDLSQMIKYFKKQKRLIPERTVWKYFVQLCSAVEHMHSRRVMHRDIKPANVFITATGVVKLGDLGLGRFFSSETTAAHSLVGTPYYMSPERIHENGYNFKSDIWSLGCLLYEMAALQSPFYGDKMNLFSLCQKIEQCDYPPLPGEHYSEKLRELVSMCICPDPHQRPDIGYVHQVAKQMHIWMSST
T3 sequence (Q96RG2 whole entry): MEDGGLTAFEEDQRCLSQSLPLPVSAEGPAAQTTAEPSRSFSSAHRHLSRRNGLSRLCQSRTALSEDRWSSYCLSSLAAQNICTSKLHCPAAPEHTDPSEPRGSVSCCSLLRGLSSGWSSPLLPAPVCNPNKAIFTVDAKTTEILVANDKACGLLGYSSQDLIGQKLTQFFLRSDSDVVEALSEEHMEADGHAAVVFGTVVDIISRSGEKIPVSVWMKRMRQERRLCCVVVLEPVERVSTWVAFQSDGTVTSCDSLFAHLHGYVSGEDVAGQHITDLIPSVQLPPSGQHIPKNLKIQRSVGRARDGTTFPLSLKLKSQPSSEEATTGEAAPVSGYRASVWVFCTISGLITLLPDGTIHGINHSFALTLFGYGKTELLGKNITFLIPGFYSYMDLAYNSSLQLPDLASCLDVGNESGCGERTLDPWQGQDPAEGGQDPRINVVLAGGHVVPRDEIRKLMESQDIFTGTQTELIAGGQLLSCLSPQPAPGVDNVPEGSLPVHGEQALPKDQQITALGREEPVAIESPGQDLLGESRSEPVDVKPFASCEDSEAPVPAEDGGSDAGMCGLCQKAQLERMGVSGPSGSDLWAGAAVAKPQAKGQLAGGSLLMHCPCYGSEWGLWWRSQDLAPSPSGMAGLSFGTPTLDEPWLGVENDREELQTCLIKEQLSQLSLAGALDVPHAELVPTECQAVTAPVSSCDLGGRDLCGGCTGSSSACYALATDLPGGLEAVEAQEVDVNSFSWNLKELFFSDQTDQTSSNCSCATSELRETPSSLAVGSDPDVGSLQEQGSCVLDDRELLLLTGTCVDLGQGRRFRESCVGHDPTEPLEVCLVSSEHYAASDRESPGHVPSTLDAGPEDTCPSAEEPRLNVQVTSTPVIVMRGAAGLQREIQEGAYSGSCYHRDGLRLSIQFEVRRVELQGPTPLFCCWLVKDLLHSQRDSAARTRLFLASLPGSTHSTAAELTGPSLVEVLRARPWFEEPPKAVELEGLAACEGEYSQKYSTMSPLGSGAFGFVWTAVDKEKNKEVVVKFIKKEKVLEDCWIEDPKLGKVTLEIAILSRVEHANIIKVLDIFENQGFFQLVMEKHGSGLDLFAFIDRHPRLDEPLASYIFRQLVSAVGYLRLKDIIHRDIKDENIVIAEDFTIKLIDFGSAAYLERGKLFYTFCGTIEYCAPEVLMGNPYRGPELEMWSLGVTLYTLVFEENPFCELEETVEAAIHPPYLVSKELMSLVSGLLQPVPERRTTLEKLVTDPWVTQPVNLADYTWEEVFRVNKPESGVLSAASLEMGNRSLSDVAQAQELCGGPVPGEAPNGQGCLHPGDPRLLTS
T6 sequence (Q9Y463 whole entry): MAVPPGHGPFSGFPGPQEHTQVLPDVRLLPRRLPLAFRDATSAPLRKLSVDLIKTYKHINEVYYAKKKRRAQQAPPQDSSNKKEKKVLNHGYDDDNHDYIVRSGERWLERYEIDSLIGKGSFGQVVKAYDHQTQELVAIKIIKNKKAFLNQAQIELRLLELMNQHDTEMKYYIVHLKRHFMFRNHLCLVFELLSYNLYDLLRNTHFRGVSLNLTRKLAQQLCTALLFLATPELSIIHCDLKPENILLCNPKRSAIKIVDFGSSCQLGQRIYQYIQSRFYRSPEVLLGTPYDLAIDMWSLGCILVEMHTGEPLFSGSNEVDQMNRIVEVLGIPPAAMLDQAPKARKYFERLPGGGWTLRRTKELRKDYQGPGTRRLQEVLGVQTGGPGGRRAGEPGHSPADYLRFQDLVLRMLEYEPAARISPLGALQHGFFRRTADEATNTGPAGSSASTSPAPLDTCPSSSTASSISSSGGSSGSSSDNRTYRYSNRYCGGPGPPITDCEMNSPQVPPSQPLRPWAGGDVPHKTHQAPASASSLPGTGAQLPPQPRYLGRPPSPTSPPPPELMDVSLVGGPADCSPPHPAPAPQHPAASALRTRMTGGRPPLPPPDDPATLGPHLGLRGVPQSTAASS
T1 sequence (Q07002 whole entry): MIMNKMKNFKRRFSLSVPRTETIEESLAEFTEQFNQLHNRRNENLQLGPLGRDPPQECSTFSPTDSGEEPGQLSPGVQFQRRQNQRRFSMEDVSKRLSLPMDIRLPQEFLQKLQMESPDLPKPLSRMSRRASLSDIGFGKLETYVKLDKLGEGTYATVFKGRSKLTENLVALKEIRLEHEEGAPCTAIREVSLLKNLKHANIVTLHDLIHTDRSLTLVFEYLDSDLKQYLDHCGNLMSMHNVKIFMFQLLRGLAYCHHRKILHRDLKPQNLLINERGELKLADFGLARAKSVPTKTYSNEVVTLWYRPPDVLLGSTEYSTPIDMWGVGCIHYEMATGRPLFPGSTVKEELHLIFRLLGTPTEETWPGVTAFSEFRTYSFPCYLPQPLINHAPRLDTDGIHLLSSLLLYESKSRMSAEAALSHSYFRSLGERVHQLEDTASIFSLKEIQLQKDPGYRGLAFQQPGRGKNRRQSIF

Take `O=C(Nc1cnn(-c2csc(C(=O)NC3COC3)c2)c1)Nc1ccccc1Cl` [Compound 17, 4-(4-(3-(2-chlorophenyl)ureido)-1H-pyrazol-1-yl)-N-(oxetan-3-yl)thiophene-2-carboxamide]: the remaining activity at 5 µM in [1] turned out to be 101%; in [2] it was 98.5%; in experiment [3], 96.3%; in experiment [4] it was 104%; in experiment [5], 100%; in experiment [6] it was 87%. For the same compound, the remaining activity at 5 µM in [7] was 94.9%; in experiment [8] it was 104%; in experiment [9], 103%; in experiment [10], 106%.

Consider `O=C(Nc1cnn(-c2csc(C(=O)NC3COC3)c2)c1)Nc1c(F)cccc1Cl` [Compound 25, 4-(4-(3-(2-chloro-6-fluorophenyl)ureido)-1H-pyrazol-1-yl)-N-(oxetan-3-yl)thiophene-2-carboxamide], for which the remaining activity at 5 µM in [1] amounted to 91.9%; in experiment [2], 90.2%; in experiment [3], 99.7%; in [4] it was 96.2%; in experiment [5], 107%; in [6] it was 82.8%. Further, the remaining activity at 5 µM in experiment [7] was 102%; in experiment [8], 99.6%; in experiment [9], 87.2%; in [10] it was 96.8%.

Consider `Cc1sc(C(=O)NC2COC2)cc1-n1cc(NC(=O)Nc2c(F)cccc2Cl)cn1` [Compound 27, 4-(4-(3-(2-chloro-6-fluorophenyl)ureido)-1H-pyrazol-1-yl)-5-methyl-N-(oxetan-3-yl)thiophene-2-carboxamide], for which the remaining activity at 10 µM turned out to be 119% in [1] (10 uM); 104% in experiment [2] (10 uM); 96.1% in experiment [3] (10 uM); 88% in experiment [4] (10 uM); 93.6% in experiment [5] (10 uM); 105% in experiment [6] (10 uM). In addition, the remaining activity at 10 µM is 95.7% in experiment [7] (10 uM), 105% in [8] (10 uM), 93.3% in [9] (10 uM) and 92.9% in experiment [10] (10 uM).
